# Laboratory results taken from US20160367578A1, “METHODS AND COMPOSITIONS FOR ERADICATING LEUKEMIC CELLS” (priority 2013, published 2016).
# “Also recorded” adds a separate entry of the source.
# Tests used:
# Type in all cases: cell-based, mouse
# MLL-AF9 cells [1] = assay: Viability of MLL-AF9 cells exposed to CBX for 16 hours (7AAD FACS); design: MLL-AF9 cell death: dose or concentration left out as unconfirmed
# Procedure: Cells were distinguished by Cd45.1/CD45.2 expression and cell viability was determined by % of 7AAD-negative cells, in FACS analysis. (*p<0.01).
# (§1) We then asked how blockage of gap junction intercellular communication affects AML cells, without additional treatment. […] In order to exclude the possibility of clone specific effects, we have repeated the experiments with a different MLL-AF9 clone, generated independently, and also included HoxA9/Meis1 AML cells that represent a different type of AML.
# MLL-AF9 leukemic cells = assay: Apoptosis of MLL-AF9 leukemic cells (7AAD-negative, annexin-V positive); design: apoptosis of leukemic cells, kinetics: dose or concentration left out as unconfirmed
# Procedure: Rate of proliferation for cell populations used is as follows: MLL-AF9: 3 divisions/24 hours; myeloblasts: 3 divisions/24 hours, eLKS: 7 divisions/24 hours.
# The informational material can include instructions to administer the gap junction blocker and/or agents described herein in a suitable manner, e.g., in a suitable dose, dosage form, or mode of administration. […] The informational material can include instructions for selecting a suitable subject, e.g., a human, e.g., a human suffering from relapsed or refractory acute myeloid leukemia. The informational material of the kits is not limited in its form. In many cases, the informational material, e.g., instructions, is provided in printed matter, e.g., a printed text, drawing, and/or photograph, e.g., a label or printed sheet. However, the informational material can also be provided in other formats, such as Braille, computer readable material, video recording, or audio recording. In another embodiment, the informational material of the kit is a link or contact information, e.g., a physical address, email address, hyperlink, website, or telephone number, where a user of the kit can obtain substantive information about the modulator and/or its use in the methods described herein. Of course, the informational material can also be provided in any combination of formats.
# [2] = tested on: bone marrow primary leukocytes (normal stem cells); assay: Colony formation assay (CFU-C) on bone marrow primary leukocytes; conditions: increasing concentrations of carbenoxolone
# [3] = tested on: primary bone marrow leukocytes or primary peripheral blood leukocytes; assay: Viability of normal primary leukocytes exposed to CBX, alone or in 1:1 mixtures (7AAD FACS); design: sensitivity of wild type primary leukocytes from BM or PB: dose or concentration left out as unconfirmed; conditions: for effect on normal counterparts in 1:1 mixtures with different AML cells: MLL-AF9 clone A/B or HoxA9/Meis1 mixtures
# Procedure: Cells were distinguished by Cd45.1/CD45.2 expression and cell viability was determined by % of 7AAD-negative cells, in FACS analysis.
# as §1
# MLL-AF9 cells [4] = assay: MLL-AF9 viability under chemotherapy with or w/o MS-5 stromal layer, transwell inserts and CBX (7AAD FACS)
# Excerpt: Viability was detected via GFP expression and 7AAD exclusion.
# To test this hypothesis, we evaluated the response of MLL-AF9 leukemic cells to chemotherapy in vitro, with and without supporting bone marrow stromal cells using time-lapse video microscopy combined with flow cytometry. […] MS-5 are murine bone-marrow stromal cells that were previously shown to support hematopoietic stem and progenitor cells (Itoh, et al., Experimental Hematology 21, 145-153 (1989) and Schajnovitz, et al., Nature Immunology 12, 391-8 (2011)). […] In order to distinguish between Stromal-leukemic (heterotypic) interactions and leukemic-leukemic (homotypic) interactions, we separated the MLL-AF9 from the stroma by transwell inserts, to restrict heterotypic interactions while allowing homotypic interactions.
# Since adhesion interactions of hematopoietic cells are commonly accompanied with intercellular communication, we then tested the potential role of gap junctions activity in drug resistance. Gap junction intercellular channels, which are homo- and hetero-hexamers of connexin proteins, facilitate intercellular communication between contacting cells via the passage of secondary messengers, such as calcium and cAMP^17.
# [5] = CBX at greater than or equal to 100 μM, 16 hours
structure (smiles),measurement,setting,value
"CC1(C)[C@@H](OC(=O)CCC(=O)O)CC[C@]2(C)[C@H]3C(=O)C=C4[C@@H]5C[C@@](C)(C(=O)O)CC[C@]5(C)CC[C@@]4(C)[C@]3(C)CC[C@@H]12 [CBX, Carbenoxolone]",cells eradicated,"MLL-AF9 cells [1]; 1001 μM CBX for 16 hours, CBX alone",~20%
same,eradication of MLL-AF9 leukemia,MLL-AF9 cells [1]; [5],eradication of MLL-AF9 leukemia
same,MLL-AF9 cell death,"MLL-AF9 cells [1]; CBX, 16 hours",~70%
same,eradication of MLL-AF9 cells in 1:1 mixture with normal BM leukocytes,"MLL-AF9 cells [1]; increasing CBX up to 400 μM, 16 hours",selectively eradicates
same,apoptosis of MLL-AF9 leukemic cells,"MLL-AF9 leukemic cells; 6, 12 and 20 hours",rapidly induces apoptosis
same,cell cycle dependence of CBX-induced leukemia apoptosis,"MLL-AF9 leukemic cells; 4 h, 1:1 mixture with highly proliferating normal myeloblasts or expanded LKS cells",not cell cycle dependent
same,apoptosis of leukemic cells in 1:1 mixture with BM-MNC,"MLL-AF9 leukemic cells; CBX vs PBS control, 4h",induces apoptosis of leukemic cells
same,"apoptosis of leukemic cells, kinetics",MLL-AF9 leukemic cells; exposure of about […] μM,selective apoptosis within hours
same,effect on normal stem cells (CFU-C),[2],inducing proliferation of normal stem cells
same,cytotoxic effects on normal cells,[3],no cytotoxic effects
same,effect on normal BM leukocytes in 1:1 mixture with MLL-AF9,"[3]; CBX as high as 400 μM, 16 hours",without affecting the normal cells
same,eradication of normal blood cells,[3]; [5],not the eradication of normal blood cells
same,sensitivity of wild type primary leukocytes from BM or PB,"[3]; CBX even at high concentration, 16 hours",not sensitive
same,effect on normal counterparts in 1:1 mixtures with different AML cells,[3]; 16 hours,without affecting normal cells; also recorded: without affecting non-leukemic normal counterparts
same,effect on normal counterparts in 1:1 mixtures with different AML cells,"[3]; 16 hours, listed as carbenoxolone",without affecting non-leukemic normal counterparts
same,stroma-mediated drug resistance,"MLL-AF9 cells [4]; 25 nM cytarabine and 10 nM doxorubicin as chemo, 16 hours",overcomes stroma-mediated drug resistance
same,eradication,"MLL-AF9 cells [4]; co-cultures separated with transwell inserts, CBX + chemotherapy",more than 90%
same,MLL-AF9 cells eradicated,"MLL-AF9 cells [4]; coculture with MS-5, 100 μM CBX 20 minutes before induction chemotherapy",~90%
